Source: ChEMBL document CHEMBL2311283, “Structural modifications to tetrahydropyridine-3-carboxylate esters en route to the discovery of M5-preferring muscarinic receptor orthosteric antagonists” (J Med Chem, 2013)

Tests used:
[1] = target: T1, Muscarinic acetylcholine receptor M5 (Rattus norvegicus) (UniProt P08911); assay: Orthosteric antagonist activity at M5 muscarinic receptor in rat striatal slices assessed as inhibition of 10 uM oxotremorine-evoked [3H]DA release
T1 sequence (whole entry): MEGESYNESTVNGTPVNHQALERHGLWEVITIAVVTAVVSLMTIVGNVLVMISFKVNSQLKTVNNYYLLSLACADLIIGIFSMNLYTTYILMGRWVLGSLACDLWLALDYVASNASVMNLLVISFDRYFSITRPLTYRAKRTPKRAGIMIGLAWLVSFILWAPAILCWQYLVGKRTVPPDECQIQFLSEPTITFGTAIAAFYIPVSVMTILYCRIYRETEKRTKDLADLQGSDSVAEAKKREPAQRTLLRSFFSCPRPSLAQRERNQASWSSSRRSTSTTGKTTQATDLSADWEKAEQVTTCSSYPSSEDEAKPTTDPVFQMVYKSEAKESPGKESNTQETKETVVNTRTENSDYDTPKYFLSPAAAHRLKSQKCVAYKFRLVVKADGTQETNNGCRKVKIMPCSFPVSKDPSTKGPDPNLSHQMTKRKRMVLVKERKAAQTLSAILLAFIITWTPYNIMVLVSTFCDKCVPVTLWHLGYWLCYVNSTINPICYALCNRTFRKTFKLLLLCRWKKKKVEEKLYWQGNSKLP

[2] = target: T1, Muscarinic acetylcholine receptor M5 (Rattus norvegicus); conditions: at 1 µM
[3] = target: T2, Muscarinic acetylcholine receptor M3 (Homo sapiens, UniProt P20309); assay: Binding affinity to human M3 muscarinic receptor
T2 sequence (P20309 whole entry): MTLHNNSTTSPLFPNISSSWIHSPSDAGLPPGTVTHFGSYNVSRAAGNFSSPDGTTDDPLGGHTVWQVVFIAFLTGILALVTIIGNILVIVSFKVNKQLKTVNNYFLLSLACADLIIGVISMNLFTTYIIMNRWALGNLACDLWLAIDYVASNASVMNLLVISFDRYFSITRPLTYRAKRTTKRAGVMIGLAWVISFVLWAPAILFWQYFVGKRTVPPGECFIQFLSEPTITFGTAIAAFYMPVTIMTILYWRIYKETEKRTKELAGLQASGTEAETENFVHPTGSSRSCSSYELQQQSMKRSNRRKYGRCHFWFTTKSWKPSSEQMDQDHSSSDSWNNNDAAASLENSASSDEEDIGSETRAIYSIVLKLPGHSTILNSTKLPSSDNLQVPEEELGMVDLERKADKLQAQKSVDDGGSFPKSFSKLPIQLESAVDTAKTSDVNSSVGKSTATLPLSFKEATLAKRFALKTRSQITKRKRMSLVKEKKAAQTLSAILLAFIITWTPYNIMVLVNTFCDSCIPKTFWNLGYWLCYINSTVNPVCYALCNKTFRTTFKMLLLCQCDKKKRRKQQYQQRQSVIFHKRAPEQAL

[4] = target: T3, Muscarinic acetylcholine receptor M4 (Homo sapiens, UniProt P08173); assay: Binding affinity to human M4 muscarinic receptor
T3 sequence (P08173 whole entry): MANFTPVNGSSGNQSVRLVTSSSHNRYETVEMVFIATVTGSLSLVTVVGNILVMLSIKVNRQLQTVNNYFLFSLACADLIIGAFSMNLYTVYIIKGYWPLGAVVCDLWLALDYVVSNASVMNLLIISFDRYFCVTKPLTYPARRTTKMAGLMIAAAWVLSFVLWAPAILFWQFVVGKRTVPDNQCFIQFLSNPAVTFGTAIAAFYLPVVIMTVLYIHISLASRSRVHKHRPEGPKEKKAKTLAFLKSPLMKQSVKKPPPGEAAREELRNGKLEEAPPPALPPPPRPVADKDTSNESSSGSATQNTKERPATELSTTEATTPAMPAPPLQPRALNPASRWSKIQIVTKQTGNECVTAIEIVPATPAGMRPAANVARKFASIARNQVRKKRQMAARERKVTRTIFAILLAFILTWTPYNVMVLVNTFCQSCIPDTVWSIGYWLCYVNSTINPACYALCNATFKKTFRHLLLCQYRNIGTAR

[5] = target: T4, Muscarinic acetylcholine receptor M2 (Homo sapiens, UniProt P08172)
T4 sequence (P08172 whole entry): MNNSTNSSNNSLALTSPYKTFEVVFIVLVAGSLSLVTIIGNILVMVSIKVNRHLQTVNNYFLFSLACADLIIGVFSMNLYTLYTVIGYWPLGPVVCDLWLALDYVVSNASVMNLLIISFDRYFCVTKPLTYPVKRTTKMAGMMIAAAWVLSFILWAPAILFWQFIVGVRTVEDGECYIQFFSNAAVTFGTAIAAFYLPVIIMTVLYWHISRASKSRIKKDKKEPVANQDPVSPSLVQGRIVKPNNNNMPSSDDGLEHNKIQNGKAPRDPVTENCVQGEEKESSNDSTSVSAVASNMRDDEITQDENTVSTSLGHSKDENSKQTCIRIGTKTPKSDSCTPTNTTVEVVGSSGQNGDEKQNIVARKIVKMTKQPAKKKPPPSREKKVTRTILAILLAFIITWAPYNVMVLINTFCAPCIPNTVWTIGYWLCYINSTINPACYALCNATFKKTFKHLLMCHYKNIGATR

[6] = target: T3, Muscarinic acetylcholine receptor M4; assay: Displacement of [3H]NMS from human M4 muscarinic receptor expressed in CHO-K1 cells; type: cell-based
[7] = target: T4, Muscarinic acetylcholine receptor M2; assay: Displacement of [3H]NMS from human M2 muscarinic receptor expressed in CHO-K1 cells; type: cell-based
[8] = target: T2, Muscarinic acetylcholine receptor M3; assay: Displacement of [3H]NMS from human M3 muscarinic receptor expressed in CHO-K1 cells; type: cell-based
Homo sapiens [9] = species on record: Homo sapiens; assay: Selectivity index, ratio of Ki for human M1 muscarinic receptor to Ki for human M5 muscarinic receptor
Homo sapiens [10] = species on record: Homo sapiens; assay: Selectivity index, ratio of Ki for human M4 muscarinic receptor to Ki for human M5 muscarinic receptor
[11] = target: T5, Muscarinic acetylcholine receptor M1 (Homo sapiens, UniProt P11229); assay: biochemical; type: cell-based, CHO-K1
T5 sequence (P11229 whole entry): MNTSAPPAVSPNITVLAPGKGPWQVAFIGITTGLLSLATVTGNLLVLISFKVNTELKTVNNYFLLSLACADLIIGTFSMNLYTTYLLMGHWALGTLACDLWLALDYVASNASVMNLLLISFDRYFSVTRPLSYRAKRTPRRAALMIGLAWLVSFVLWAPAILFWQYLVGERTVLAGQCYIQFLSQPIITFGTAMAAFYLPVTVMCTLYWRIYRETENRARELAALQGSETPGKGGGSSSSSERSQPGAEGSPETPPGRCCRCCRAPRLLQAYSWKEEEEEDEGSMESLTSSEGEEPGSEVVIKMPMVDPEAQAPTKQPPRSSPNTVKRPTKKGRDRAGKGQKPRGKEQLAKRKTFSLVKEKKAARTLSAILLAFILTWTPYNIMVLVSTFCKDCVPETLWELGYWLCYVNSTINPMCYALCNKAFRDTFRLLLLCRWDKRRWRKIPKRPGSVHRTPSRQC

[12] = target: T6, Muscarinic acetylcholine receptor M5 (Homo sapiens, UniProt P08912); assay: Displacement of [3H]NMS from human M5 muscarinic receptor expressed in CHO-K1 cells; type: cell-based
T6 sequence (P08912 whole entry): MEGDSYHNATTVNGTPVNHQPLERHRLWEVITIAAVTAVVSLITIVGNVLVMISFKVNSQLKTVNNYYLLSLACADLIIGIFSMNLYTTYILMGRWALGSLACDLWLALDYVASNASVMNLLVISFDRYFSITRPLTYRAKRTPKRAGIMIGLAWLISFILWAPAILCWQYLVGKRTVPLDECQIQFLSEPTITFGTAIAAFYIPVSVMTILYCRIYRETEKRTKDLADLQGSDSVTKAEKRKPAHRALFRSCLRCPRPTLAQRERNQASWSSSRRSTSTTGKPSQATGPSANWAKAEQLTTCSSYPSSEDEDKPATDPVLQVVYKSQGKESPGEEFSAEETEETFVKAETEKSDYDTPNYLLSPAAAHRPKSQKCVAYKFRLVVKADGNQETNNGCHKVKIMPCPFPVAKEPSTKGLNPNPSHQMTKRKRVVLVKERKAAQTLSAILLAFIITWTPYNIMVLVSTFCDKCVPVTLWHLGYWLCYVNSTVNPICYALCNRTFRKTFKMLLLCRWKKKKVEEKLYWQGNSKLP

Homo sapiens [13] = species on record: Homo sapiens; assay: Selectivity index, ratio of Ki for human M3 muscarinic receptor to Ki for human M5 muscarinic receptor

## CN1[C@@H]2C[C@@H](OC(=O)[C@H](CO)c3ccccc3)C[C@H]1[C@@H]1O[C@@H]12
[1]
  inhibition: Dose-dependent effect
[2]
  Imax: 100%

## CCN(CC)CC1CCCCN1CC(=O)N1c2ccccc2C(=O)Nc2cccnc21 (stereo not drawn) [OTENZEPAD]
[3]
  Ki: 2.09 µM
[4]
  Ki: 0.407 µM
[5]
  Ki: 0.081 µM

## CN1CCC(c2ccccc2)=C(C(=O)OCCc2cccc3ccccc23)C1
[6]
  Ki: > 100 µM
[7]
  Ki: > 100 µM
[8]
  Ki: > 100 µM
Homo sapiens [9]
  Ratio Ki: 4.8
Homo sapiens [10]
  Ratio Ki: > 20
[11]
  Ki: 24.4 µM
[12]
  Ki: 5.04 µM
Homo sapiens [13]
  Ratio Ki: > 20
